Experimental data: ChEMBL document CHEMBL5214920, “Emerging impact of triazoles as anti-tubercular agent” (Eur J Med Chem, 2022)
≈ marks a conversion by molar mass, not a printed value.

What was measured:
[1] = test system: Mycobacterium tuberculosis; assay: Antitubercular activity against Mycobacterium tuberculosis H37Rv assessed as bacterial growth inhibition by micro broth dilution assay; format: functional
[2] = test system: Mycobacterium tuberculosis; assay: Antitubercular activity against Mycobacterium tuberculosis H37Rv assessed as bacterial growth inhibition measured after 7 days by broth microdilution assay; format: functional; conditions: 168 h, time 7 day
[3] = test system: Mycobacterium tuberculosis; assay: Antitubercular activity against Mycobacterium tuberculosis H37Rv ATCC 27294 assessed as bacterial growth inhibition measured after 48 hrs by broth dilution method; format: functional
[4] = test system: Mycobacterium tuberculosis; assay: Antitubercular activity against Mycobacterium tuberculosis H37Rv ATCC 25618 assessed as bacterial growth inhibition; format: functional
[5] = test system: Mycobacterium tuberculosis; assay: Antitubercular activity against Mycobacterium tuberculosis spec. 210 assessed as bacterial growth inhibition; format: functional
[6] = test system: Mycobacterium tuberculosis; assay: Antitubercular activity against Mycobacterium tuberculosis spec. 192 assessed as bacterial growth inhibition; format: functional
[7] = test system: Mycobacterium tuberculosis; assay: Antitubercular activity against Mycobacterium tuberculosis H37Rv assessed as bacterial growth inhibition measured after […] by twofold agar dilution method; format: functional
[8] = test system: Mycobacterium tuberculosis; assay: Antitubercular activity against Mycobacterium tuberculosis H37Rv assessed as bacterial growth inhibition; format: functional
[9] = test system: Mycobacterium tuberculosis; assay: Antitubercular activity against Mycobacterium tuberculosis H37Rv ATCC 27294 assessed as bacterial growth inhibition by agar dilution method; format: functional
[10] = test system: Mycobacterium tuberculosis; assay: Antitubercular activity against dormant stage of Mycobacterium tuberculosis H37Ra ATCC 25177 assessed as bacterial growth inhibition by XTT assay; format: functional
[11] = test system: Mycobacterium tuberculosis; assay: Antitubercular activity against active stage of Mycobacterium tuberculosis H37Ra ATCC 25177 assessed as bacterial growth inhibition by XTT assay; format: functional
[12] = test system: Mycobacterium tuberculosis; assay: Antitubercular activity against Mycobacterium tuberculosis H37Rv assessed as reduction in relative light units at 5 ug/ml incubated for 4 hrs followed by addition of D-luciferin by luciferase based luminometer analysis relative to control; format: functional; parameters: scale not given: the % may be the effect or the level left; conditions: dose 5 µg/ml
[13] = test system: Mycobacterium tuberculosis; assay: Antitubercular activity against Mycobacterium tuberculosis H37Rv assessed as reduction in relative light units at 25 ug/ml incubated for 4 hrs followed by addition of D-luciferin by luciferase based luminometer analysis relative to control; format: functional; parameters: scale not given: the % may be the effect or the level left; conditions: dose 25 µg/ml
[14] = test system: Mycobacterium tuberculosis; assay: Antitubercular activity against Mycobacterium tuberculosis H37Rv assessed as bacterial growth inhibition at 6.25 ug/ml measured after 5 to 8 days by radiometric analysis relative to control; format: functional; parameters: scale not given: the % may be the effect or the level left; conditions: dose 6.25 µg/ml; time 5-8 day
[15] = test system: Mycobacterium tuberculosis; assay: Antitubercular activity against Mycobacterium tuberculosis H37Rv ATCC 27294 assessed as bacterial growth inhibition; format: functional
[16] = test system: Mycobacterium tuberculosis; assay: Antitubercular activity against Mycobacterium tuberculosis H37Rv assessed as bacterial growth inhibition by direct susceptibility assay; format: functional
[17] = Cytotoxicity against CHO cells assessed as cell growth inhibition by MTT assay; format: toxicity, cell-based, Cricetulus griseus; conditions: chinese hamster

CC(C)=CCC/C(C)=C/COc1ccc(/C=C/c2nnc3c4ccccc4cnn23)cc1
MIC [1]: 0.5 µg/mL

O=[N+]([O-])c1ncn(CCCCNS(=O)(=O)c2ccc(Cl)s2)n1
MIC [2]: 3.13 µM (≈ 1.15 µg/mL)

O=[N+]([O-])c1ncn(CCCCNS(=O)(=O)c2cc(Cl)c(Cl)s2)n1
MIC [2]: 1.56 µM (≈ 0.624 µg/mL)

C[C@]1(COc2ccc(-n3cc(COc4ccc(OC(F)(F)F)cc4)nn3)cc2)Cn2cc([N+](=O)[O-])nc2O1
MIC [3]: 0.23 µM (≈ 0.122 µg/mL)

COc1ccc(-n2cc(Cn3nc(-c4ccccc4)c4c3CCN(C(=O)Nc3ccccc3)C4)nn2)cc1
MIC [4]: 24.7 µM (≈ 12.5 µg/mL) | MIC [5]: 24.7 µM (≈ 12.5 µg/mL) | MIC [6]: 24.7 µM (≈ 12.5 µg/mL)

O=C1CC2CN(c3ccc(N4C[C@H](Cn5ccnn5)OC4=O)cc3F)CC2C1 (stereo not given in full)
MIC [7]: 0.5 µg/mL (≈ 1.3 µM)

O=C1Nc2ccccc2/C1=N\OCc1cn(Cc2ccc(Cl)cc2)nn1
MIC [8]: 1.56 µg/mL (≈ 4.24 µM)

CC1(C)OC2C3OC(C)(C)O[C@H]3C(Cn3cc(N4C(=O)CCCC4=O)nn3)O[C@@H]2O1 (stereo not given in full)
MIC [9]: 3.12 µg/mL (≈ 7.4 µM)

Nc1ccc(-c2n[nH]c(=S)[nH]2)cc1
MIC [10]: 0.46 µg/mL (≈ 2.39 µM) | MIC [11]: > 30 µg/mL

O=C1Nc2ccccc2/C1=N\OCc1cn(Cc2ccc(F)cc2)nn1
MIC [8]: 0.78 µg/mL (≈ 2.22 µM)

CCCCCCc1cn(CCCC2C3CC4CC(C3)CC2C4)nn1.Cl (stereo not given)
MIC [8]: 6.2 µg/mL

c1ccc(-c2cn(Cc3ccc4ccccc4n3)nn2)cc1
Activity [12]: 58.2% | Activity [13]: 80.79%

Cc1nc2ccccc2n2c(-c3ccc([N+](=O)[O-])cc3)nnc12
Activity [14]: 2%

COc1ccc(-c2nnc3c(C)nc4ccccc4n23)cc1
Activity [14]: 2%

CCOC(=O)c1c(-n2cc(-c3ccc4cc(OC)ccc4c3)nn2)c2ccccc2n(C)c1=O
MIC [15]: 3.13 µg/mL (≈ 6.89 µM)

O=C(N/N=C/c1cc(Cl)cc(Cl)c1OCc1cn(-c2ccccc2Cl)nn1)c1ccncc1
MIC [8]: 1.56 µg/mL (≈ 3.11 µM)

O=C1Nc2ccccc2/C1=N\OCc1cn(Cc2cccc(C(F)(F)F)c2)nn1
MIC [8]: 3.12 µg/mL (≈ 7.79 µM)

COc1c(N2CCN(C(=O)Cn3cc(CN4C(=O)C(=O)c5cc(C)ccc54)nn3)C(C)C2)c(F)cc2c(=O)c(C(=O)O)cn(C3CC3)c12 (stereo not given)
MIC [16]: 1 µg/mL (≈ 1.52 µM) | CC50 [17]: 64 µg/mL (≈ 97.3 µM)

Cc1nc2ccccc2n2c(-c3ccc(Cl)cc3)nnc12
Activity [14]: 2%

O=[N+]([O-])c1ccc(-c2n[nH]c(=S)[nH]2)cc1
MIC [10]: 0.64 µg/mL (≈ 2.88 µM) | MIC [11]: 9.05 µg/mL (≈ 40.7 µM)

Brc1ccc(/C=C/c2nnc3c4ccccc4cnn23)cc1
MIC [1]: 0.5 µg/mL

CCCCCc1ccc(-c2cn(-c3c(C(=O)OCC)c(=O)n(C)c4ccccc34)nn2)cc1
MIC [15]: 3.13 µg/mL (≈ 7.04 µM)

O=C1Nc2ccccc2/C1=N\OCc1cn(Cc2ccc(C(F)(F)F)cc2)nn1
MIC [8]: 1.56 µg/mL (≈ 3.89 µM)

C#Cc1nnc2c3ccccc3cnn12
MIC [1]: 0.5 µg/mL
